Earlier results in patent publication US20210135109A1, “ACCELERATED THERMAL CROSSLINKING OF PVDF-HFP VIA ADDITION OF ORGANIC BASES, AND THE USAGE OF CROSSLINKED PVDF-HFP AS GATE DIELECTRIC MATERIAL FOR OTFT DEVICES” (priority 2017, published 2021).

Settings: water (measured in water unless otherwise specified)

pKa (25° C., 1 atm): 10.92 ± 0.10
Compound: NCCCCCCN [HMDA, Hexamethylenediamine]
